# Test system: DLD-1 BRCA2−/− cells
# Experiment: Homologous recombination synthetic lethal inhibition of proliferation, DLD-1 BRCA2-/- (Cell Titre Glo 3D)
# Type: cell-based
# Conditions: Homo sapiens, DLD-1, first proliferation column (c5), taken as DLD-1 BRCA2-/-; read-out: POLQ PD Prolif Lumin (converted)
# Outline: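 Read-out: CellTiter-Glo 3D luminescence, day 7 for wt DLD-1, day 12 for BRCA2−/−, about 8-9 population doublings each. Seeding 1,500 or 3,000 cells/mL respectively. Dose range 10 μM–0.51 nM, 3-fold, 10 points, with re-dosing on day 6. IC50 from curve fit.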
row,SMILES,IC50 [µM]
1,"C[C@@H](OCCOc1ccc(-c2nc3c(OC4(C)CC4)ncnc3n2Cc2cccc(Cl)c2)c(Cl)c1)C(=O)O [Example T306, (R)-2-(2-(3-chloro-4-(9-(3-chlorobenzyl)-6-(1-methylcyclopropoxy)-9H-purin-8-yl)phenoxy)ethoxy)propanoic acid]",0.794
2,"Cc1ccnc(Cn2c(-c3ccc(C(=O)N4CCCC4)cc3Cl)nc3c(OC4(C)CC4)ncnc32)c1 [Example T309, (3-chloro-4-(6-(1-methylcyclopropoxy)-9-((4-methylpyridin-2-yl)methyl)-9H-purin-8-yl)phenyl)(pyrrolidin-1-yl)methanone]",0.631
3,"Cc1ccnc(Cn2c(-c3ccc(OCC(=O)N4CCC4)cc3Cl)nc3c(OC4(C)CC4)ncnc32)c1 [Example T312, 1-(azetidin-1-yl)-2-(3-chloro-4-(6-(1-methylcyclopropoxy)-9-((4-methylpyridin-2-yl)methyl)-9H-purin-8-yl)phenoxy)ethan-1-one]",0.2
4,"Cc1ccnc(Cn2c(-c3ccc(OCCN4CCC4=O)cc3Cl)nc3c(OC4(C)CC4)ncnc32)c1 [Example T313, 1-(2-(3-chloro-4-(6-(1-methylcyclopropoxy)-9-((4-methylpyridin-2-yl)methyl)-9H-purin-8-yl)phenoxy)ethyl)azetidin-2-one]",0.2
5,"Cc1ccnc(Cn2c(-c3ccc(C(=O)N4CC(C)(O)C4)cc3Cl)nc3c(OC4(C)CC4)ncnc32)c1 [Example T314, (3-chloro-4-(6-(1-methylcyclopropoxy)-9-((4-methylpyridin-2-yl)methyl)-9H-purin-8-yl)phenyl)(3-hydroxy-3-methylazetidin-1-yl)methanone]",1.26
6,"Cc1ccnc(Cn2c(-c3ccc(C(=O)N4CCOCC4)cc3Cl)nc3c(OC4(C)CC4)ncnc32)c1 [Example T315, (3-chloro-4-(6-(1-methylcyclopropoxy)-9-((4-methylpyridin-2-yl)methyl)-9H-purin-8-yl)phenyl)(morpholino)methanone]",1.58
7,"Cc1ccnc(Cn2c(-c3ccc(C(=O)N[C@@H]4CCOC4)cc3Cl)nc3c(OC4(C)CC4)ncnc32)c1 [Example T316, (R)-3-chloro-4-(6-(1-methylcyclopropoxy)-9-((4-methylpyridin-2-yl)methyl)-9H-purin-8-yl)-N-(tetrahydrofuran-3-yl)benzamide]",0.631
8,"Cc1ccnc(Cn2c(-c3ccc(C(=O)NC4(C)COC4)cc3Cl)nc3c(OC4(C)CC4)ncnc32)c1 [Example T317, 3-chloro-4-(6-(1-methylcyclopropoxy)-9-((4-methylpyridin-2-yl)methyl)-9H-purin-8-yl)-N-(3-methyloxetan-3-yl)benzamide]",1
9,"Cc1ccnc(Cn2c(-c3ccc(OCC(=O)NC4CC4)cc3Cl)nc3c(OC4(C)CC4)ncnc32)c1 [Example T318, 2-(3-chloro-4-(6-(1-methylcyclopropoxy)-9-((4-methylpyridin-2-yl)methyl)-9H-purin-8-yl)phenoxy)-N-cyclopropylacetamide]",0.398
10,"Cc1ccnc(Cn2c(-c3ccc(C(=O)NC4CC(O)C4)cc3Cl)nc3c(OC4(C)CC4)ncnc32)c1 (stereo not drawn) [Example T319, 3-chloro-N-(3-hydroxycyclobutyl)-4-(6-(1-methylcyclopropoxy)-9-((4-methylpyridin-2-yl)methyl)-9H-purin-8-yl)benzamide]",2.51
11,"Cc1ccnc(Cn2c(-c3ccc(C(=O)N(C)C4COC4)cc3Cl)nc3c(OC4(C)CC4)ncnc32)c1 [Example T320, 3-chloro-N-methyl-4-(6-(1-methylcyclopropoxy)-9-((4-methylpyridin-2-yl)methyl)-9H-purin-8-yl)-N-(oxetan-3-yl)benzamide]",3.16
12,"Cc1ccnc(Cn2c(-c3ccc(OCC(=O)N4CC(O)C4)cc3Cl)nc3c(OC4(C)CC4)ncnc32)c1 [Example T322, 2-(3-chloro-4-(6-(1-methylcyclopropoxy)-9-((4-methylpyridin-2-yl)methyl)-9H-purin-8-yl)phenoxy)-1-(3-hydroxyazetidin-1-yl)ethan-1-one]",0.631
